For one experiment, the system named is L1210. Kind of experiment: cells. Type of experiment: cell-based, mouse. Conditions: Table 2. Here is the method: (§1) A population of cells (>1×10^6 cells/mL as determined with a hemocytometer) was diluted with Dulbecco's Modified Eagle Medium (DMEM, Gibco) containing 10% fetal bovine serum (FBS, Gibco) to give a final concentration of 30,000 cells/mL. To each well of a 96-well plate (Corning® Costar®) was added 100 μL of the cell media solution with a multichannel pipet.
(§2) The test compounds were then added to the plate as follows: test compounds were diluted in DMSO to a concentration of 1 mM. 10-Fold serial dilutions in DMSO were next performed on a separate 96-well plate. Fresh culture media (100 μL) was added to each well of cells resulting in 200 μL of medium per well followed by 2 μL of each test agent. Compounds were tested in duplicate (n=2-8 times) at six concentrations between 0-1000 nM or 0-10000 nM. Following the addition of compound, cultures were incubated for an additional 72 hours.
(§3) The plates were incubated at 37° C. for 5 minutes (L1210) or 15 min (HCT116 and HCT116/VM46).

In another experiment the test system is HCT116. Kind of experiment: cells. Type of experiment: cell-based, human. The following applies: for IC50: Table 2, read-out: IC50 HCT116; for potency relative to vinblastine (more potent): vinblastine-sensitive cell lines. Here is the method:
as §1, §2, §3

Structures are written as SMILES.

As usually defined, the IC50 is the concentration that gives 50% inhibition.

As to `CC[C@]1(NC(=O)c2ccc(OCc3ccccc3)cc2)C[C@H]2CN(CCc3c([nH]c4ccccc34)[C@@](C(=O)OC)(c3cc4c(cc3OC)N(C)[C@H]3[C@@](O)(C(=O)OC)[C@H](OC(C)=O)[C@]5(CC)C=CCN6CC[C@]43[C@@H]65)C2)C1` [Compound 77], the IC50 worked out at 5.4 nM with L1210 and 5.7 nM in the experiment on HCT116.

On to `CCC1(NC(=O)c2ccc(OC(F)(F)F)cc2)CC2CN(CCc3c([nH]c4ccccc34)C(C(=O)OC)(c3cc4c(cc3OC)N(C)C3C(O)(C(=O)OC)C(OC(C)=O)C5(CC)C=CCN6CCC43C65)C2)C1` (stereo not shown) [Compound 78], for which the IC50 in the experiment on L1210 was determined as 5.9 nM; in the experiment with HCT116 it was 4.4 nM.

On to `CCC1(NC(=O)c2cccc(OC(F)(F)F)c2)CC2CN(CCc3c([nH]c4ccccc34)C(C(=O)OC)(c3cc4c(cc3OC)N(C)C3C(O)(C(=O)OC)C(OC(C)=O)C5(CC)C=CCN6CCC43C65)C2)C1` (stereo not shown) [Compound 79], for which the IC50 in the experiment on L1210 turned out to be 4.8 nM; in the experiment on HCT116 it was 5.9 nM.

Take `CC[C@]1(NC(=O)c2ccccc2OC(F)(F)F)C[C@H]2CN(CCc3c([nH]c4ccccc34)[C@@](C(=O)OC)(c3cc4c(cc3OC)N(C)[C@H]3[C@@](O)(C(=O)OC)[C@H](OC(C)=O)[C@]5(CC)C=CCN6CC[C@]43[C@@H]65)C2)C1` [Compound 80]: the IC50 in the experiment with L1210 was 450 nM; in the experiment on HCT116 it was 480 nM.

As for `CCC1(NC(=O)c2ccc(OC(F)F)cc2)CC2CN(CCc3c([nH]c4ccccc34)C(C(=O)OC)(c3cc4c(cc3OC)N(C)C3C(O)(C(=O)OC)C(OC(C)=O)C5(CC)C=CCN6CCC43C65)C2)C1` (stereo not shown) [Compound 81], the IC50 with L1210 worked out at 5.9 nM; in the experiment with HCT116 it was 1.7 nM.

Consider `CC[C@]1(NC(=O)c2ccc(OC(F)(F)F)c(OC)c2)C[C@H]2CN(CCc3c([nH]c4ccccc34)[C@@](C(=O)OC)(c3cc4c(cc3OC)N(C)[C@H]3[C@@](O)(C(=O)OC)[C@H](OC(C)=O)[C@]5(CC)C=CCN6CC[C@]43[C@@H]65)C2)C1` [Compound 83], for which the values for the 50% inhibitory concentration (IC50) with L1210 and in the experiment with HCT116 were 1.3 nM and 1.7 nM, respectively.

As for `CCC1(NC(=O)c2ccc(SC)cc2)CC2CN(CCc3c([nH]c4ccccc34)C(C(=O)OC)(c3cc4c(cc3OC)N(C)C3C(O)(C(=O)OC)C(OC(C)=O)C5(CC)C=CCN6CCC43C65)C2)C1` (stereo not shown) [Compound 84], the values for the half-inhibitory concentration (IC50) in the experiment with L1210 and in the experiment with HCT116 were 0.4 nM and 0.5 nM, respectively.

Turning to `CCC1(NC(=O)c2cccc(SC)c2)CC2CN(CCc3c([nH]c4ccccc34)C(C(=O)OC)(c3cc4c(cc3OC)N(C)C3C(O)(C(=O)OC)C(OC(C)=O)C5(CC)C=CCN6CCC43C65)C2)C1` (stereo not shown) [Compound 85], the concentration for half-maximal inhibition (IC50) is 5.4 nM with L1210 and 2.3 nM with HCT116.

Consider `CCSc1ccc(C(=O)NC2(CC)CC3CN(CCc4c([nH]c5ccccc45)C(C(=O)OC)(c4cc5c(cc4OC)N(C)C4C(O)(C(=O)OC)C(OC(C)=O)C6(CC)C=CCN7CCC54C76)C3)C2)cc1` (stereo not shown) [Compound 86], for which the figures for the IC50 with L1210 and with HCT116 were 4.9 nM and 6.1 nM, respectively.

Consider `CCC1(NC(=O)c2ccc(SC(C)C)cc2)CC2CN(CCc3c([nH]c4ccccc34)C(C(=O)OC)(c3cc4c(cc3OC)N(C)C3C(O)(C(=O)OC)C(OC(C)=O)C5(CC)C=CCN6CCC43C65)C2)C1` (stereo not shown) [Compound 87], for which the IC50 in the experiment with L1210 is 4.3 nM; in the experiment on HCT116, 4.6 nM.

Turning to `CCC1(NC(=O)c2ccc(S(=O)(=O)F)cc2)CC2CN(CCc3c([nH]c4ccccc34)C(C(=O)OC)(c3cc4c(cc3OC)N(C)C3C(O)(C(=O)OC)C(OC(C)=O)C5(CC)C=CCN6CCC43C65)C2)C1` (stereo not shown) [Compound 88], the IC50 in the experiment with L1210 was 20 nM; with HCT116, 30 nM.

Consider `CC[C@]1(NC(=O)c2cccc(S(=O)(=O)F)c2)C[C@H]2CN(CCc3c([nH]c4ccccc34)[C@@](C(=O)OC)(c3cc4c(cc3OC)N(C)[C@H]3[C@@](O)(C(=O)OC)[C@H](OC(C)=O)[C@]5(CC)C=CCN6CC[C@]43[C@@H]65)C2)C1` [Compound 89], for which the half-inhibitory concentration (IC50) stood at 40 nM with L1210 and 30 nM with HCT116.

In the case of `CC[C@]1(NC(=O)c2ccc(OC)c(F)c2)C[C@H]2CN(CCc3c([nH]c4ccccc34)[C@@](C(=O)OC)(c3cc4c(cc3OC)N(C)[C@H]3[C@@](O)(C(=O)OC)[C@H](OC(C)=O)[C@]5(CC)C=CCN6CC[C@]43[C@@H]65)C2)C1` [Compound 90], the half-maximal inhibitory concentration (IC50) with L1210 and in the experiment with HCT116 was 0.6 nM each time.

Consider `CC[C@]1(NC(=O)c2ccc(OC)cc2F)C[C@H]2CN(CCc3c([nH]c4ccccc34)[C@@](C(=O)OC)(c3cc4c(cc3OC)N(C)[C@H]3[C@@](O)(C(=O)OC)[C@H](OC(C)=O)[C@]5(CC)C=CCN6CC[C@]43[C@@H]65)C2)C1` [Compound 91], for which the results for the IC50 with L1210 and in the experiment with HCT116 were 6.2 nM and 6.4 nM, respectively.

In the case of `CC[C@]1(NC(=O)c2ccc(OC)c(Cl)c2)C[C@H]2CN(CCc3c([nH]c4ccccc34)[C@@](C(=O)OC)(c3cc4c(cc3OC)N(C)[C@H]3[C@@](O)(C(=O)OC)[C@H](OC(C)=O)[C@]5(CC)C=CCN6CC[C@]43[C@@H]65)C2)C1` [Compound 92], the 50% inhibitory concentration (IC50) in the experiment on L1210 amounted to 3.7 nM; in the experiment on HCT116, 5.1 nM.

For the compound `CCC1(NC(=O)c2ccc(OC)c(Br)c2)CC2CN(CCc3c([nH]c4ccccc34)C(C(=O)OC)(c3cc4c(cc3OC)N(C)C3C(O)(C(=O)OC)C(OC(C)=O)C5(CC)C=CCN6CCC43C65)C2)C1` (stereo not shown) [Compound 93], the 50% inhibitory concentration (IC50) in the experiment on L1210 was 5.1 nM; in the experiment on HCT116, 6.2 nM.

On to `CCOc1ccc(C(=O)N[C@@]2(CC)C[C@H]3CN(CCc4c([nH]c5ccccc45)[C@@](C(=O)OC)(c4cc5c(cc4OC)N(C)[C@H]4[C@@](O)(C(=O)OC)[C@H](OC(C)=O)[C@]6(CC)C=CCN7CC[C@]54[C@@H]76)C3)C2)cc1Cl` [Compound 94], for which the figures for the concentration for half-maximal inhibition (IC50) with L1210 and in the experiment with HCT116 were 4.2 nM and 6.1 nM, respectively.

For `CCOc1ccc(C(=O)N[C@@]2(CC)C[C@H]3CN(CCc4c([nH]c5ccccc45)[C@@](C(=O)OC)(c4cc5c(cc4OC)N(C)[C@H]4[C@@](O)(C(=O)OC)[C@H](OC(C)=O)[C@]6(CC)C=CCN7CC[C@]54[C@@H]76)C3)C2)cc1Br` [Compound 95], the 50% inhibitory concentration (IC50) was 3.9 nM in the experiment with L1210 and 6.2 nM in the experiment with HCT116.

Turning to `CC[C@]1(NC(=O)c2cc(Cl)c(OC)c(Cl)c2)C[C@H]2CN(CCc3c([nH]c4ccccc34)[C@@](C(=O)OC)(c3cc4c(cc3OC)N(C)[C@H]3[C@@](O)(C(=O)OC)[C@H](OC(C)=O)[C@]5(CC)C=CCN6CC[C@]43[C@@H]65)C2)C1` [Compound 96], the IC50 with L1210 was 3.1 nM; in the experiment with HCT116 it was 4.2 nM.

`CC[C@]1(NC(=O)c2ccc(OC)c(C)c2)C[C@H]2CN(CCc3c([nH]c4ccccc34)[C@@](C(=O)OC)(c3cc4c(cc3OC)N(C)[C@H]3[C@@](O)(C(=O)OC)[C@H](OC(C)=O)[C@]5(CC)C=CCN6CC[C@]43[C@@H]65)C2)C1` [Compound 97] came in with an IC50 with L1210 of 0.6 nM. Further, in the experiment with HCT116, the IC50 was found to be 0.7 nM and the “potency relative to vinblastine (more potent)” value stood at 10 fold.

Regarding `CCC1(NC(=O)c2ccc(C)c(OC)c2)CC2CN(CCc3c([nH]c4ccccc34)C(C(=O)OC)(c3cc4c(cc3OC)N(C)C3C(O)(C(=O)OC)C(OC(C)=O)C5(CC)C=CCN6CCC43C65)C2)C1` (stereo not shown) [Compound 98], the IC50 in the experiment on L1210 was found to be 4.2 nM; with HCT116, 3.3 nM.

As for `CCC1(NC(=O)c2cc(C)c(OC)c(C)c2)CC2CN(CCc3c([nH]c4ccccc34)C(C(=O)OC)(c3cc4c(cc3OC)N(C)C3C(O)(C(=O)OC)C(OC(C)=O)C5(CC)C=CCN6CCC43C65)C2)C1` (stereo not shown) [Compound 99], the values for the IC50 with L1210 and in the experiment with HCT116 were 0.5 nM and 0.65 nM, respectively. Moreover, in the experiment on HCT116, the “potency relative to vinblastine (more potent)” value came out at 10 fold.

Take `CC[C@]1(NC(=O)c2cc(C)c(OCc3ccccc3)c(C)c2)C[C@H]2CN(CCc3c([nH]c4ccccc34)[C@@](C(=O)OC)(c3cc4c(cc3OC)N(C)[C@H]3[C@@](O)(C(=O)OC)[C@H](OC(C)=O)[C@]5(CC)C=CCN6CC[C@]43[C@@H]65)C2)C1` [Compound 100]: the IC50 in the experiment with L1210 and in the experiment on HCT116 was 30 nM throughout.

With `CCC1(NC(=O)c2ccc(C)c(N)c2)CC2CN(CCc3c([nH]c4ccccc34)C(C(=O)OC)(c3cc4c(cc3OC)N(C)C3C(O)(C(=O)OC)C(OC(C)=O)C5(CC)C=CCN6CCC43C65)C2)C1` (stereo not shown) [Compound 101], the 50% inhibitory concentration (IC50) in the experiment with L1210 turned out to be 0.6 nM; in the experiment on HCT116, 0.7 nM.

`CCC1(NC(=O)c2ccc(C)c(NC(=O)OC(C)(C)C)c2)CC2CN(CCc3c([nH]c4ccccc34)C(C(=O)OC)(c3cc4c(cc3OC)N(C)C3C(O)(C(=O)OC)C(OC(C)=O)C5(CC)C=CCN6CCC43C65)C2)C1` (stereo not shown) [Compound 102]: the IC50 with L1210 is 6 nM; in the experiment with HCT116, 7.1 nM.

Take `CCC1(NC(=O)c2ccc(C)c(NC(C)=O)c2)CC2CN(CCc3c([nH]c4ccccc34)C(C(=O)OC)(c3cc4c(cc3OC)N(C)C3C(O)(C(=O)OC)C(OC(C)=O)C5(CC)C=CCN6CCC43C65)C2)C1` (stereo not shown) [Compound 103]: the half-inhibitory concentration (IC50) stood at 5.4 nM in the experiment on L1210 and 4.3 nM in the experiment with HCT116.

As to `CC[C@]1(NC(=O)c2ccc(N)c(C)c2)C[C@H]2CN(CCc3c([nH]c4ccccc34)[C@@](C(=O)OC)(c3cc4c(cc3OC)N(C)[C@H]3[C@@](O)(C(=O)OC)[C@H](OC(C)=O)[C@]5(CC)C=CCN6CC[C@]43[C@@H]65)C2)C1` [Compound 104], the IC50 in the experiment on L1210 and in the experiment with HCT116 was 0.6 nM throughout.

On to `CC[C@]1(NC(=O)c2ccc(NC(=O)OC(C)(C)C)c(C)c2)C[C@H]2CN(CCc3c([nH]c4ccccc34)[C@@](C(=O)OC)(c3cc4c(cc3OC)N(C)[C@H]3[C@@](O)(C(=O)OC)[C@H](OC(C)=O)[C@]5(CC)C=CCN6CC[C@]43[C@@H]65)C2)C1` [Compound 105], for which the values for the half-maximal inhibitory concentration (IC50) in the experiment on L1210 and with HCT116 were 5.6 nM and 5.8 nM, respectively.
